Test results reported in patent US20250312462A1, “PAK1 DEGRADERS AND METHODS OF USE THEREOF” (INSTITUTE FOR CANCER RESEARCH D/B/A THE RESEARCH INSTITUTE …, priority 2022, published 2025).

Assays:
Experiment in all cases: KINOMEscan
Conditions in all cases: read-out: Percent Control
[1] = target: MARK2 (Homo sapiens, UniProt Q7KZI7)
Protocol: (§1) The kinase engagement assay (KINOMEscan®) was performed by DiscoverX assessing binding abilities toward a set of kinases.

[2] = target: MAP4K4 (Homo sapiens, UniProt O95819)
Protocol: as §1

[3] = target: TLK1 (Homo sapiens, UniProt Q9UKI8)
Protocol: as §1

[4] = target: RSK1(Kin.Dom.2-C-terminal) (Homo sapiens, UniProt Q15418)
Protocol: as §1

[5] = target: PRKG1 (Homo sapiens, UniProt Q13976)
Protocol: as §1

[6] = target: DRAK2 (Homo sapiens, UniProt O94768)
Protocol: as §1

[7] = target: MAP4K5 (Homo sapiens, UniProt Q9Y4K4)
Protocol: as §1

[8] = target: RPS6KA4(Kin.Dom.1-N-terminal) (Homo sapiens, UniProt O75676)
Protocol: as §1

[9] = target: CSNK1E (Homo sapiens, UniProt P49674)
Protocol: as §1

[10] = target: NEK5 (Homo sapiens, UniProt Q6P3R8)
Protocol: as §1

[11] = target: DMPK2 (Homo sapiens, UniProt Q6DT37)
Protocol: as §1

[12] = target: SGK2 (Homo sapiens, UniProt Q9HBY8)
Protocol: as §1

[13] = target: DCAMKL1 (Homo sapiens, UniProt O15075)
Protocol: as §1

[14] = target: FGFR2 (Homo sapiens, UniProt P21802)
Protocol: as §1

[15] = target: NEK7 (Homo sapiens, UniProt Q8TDX7)
Protocol: as §1

[16] = target: CDK8 (Homo sapiens, UniProt P49336)
Protocol: as §1

[17] = target: TLK2 (Homo sapiens, UniProt Q86UE8)
Protocol: as §1

[18] = target: MELK (Homo sapiens, UniProt Q14680)
Protocol: as §1

[19] = target: PRKD1 (Homo sapiens, UniProt Q15139)
Protocol: as §1

[20] = target: PIM2 (Homo sapiens, UniProt Q9P1W9)
Protocol: as §1

[21] = target: SgK110 (Homo sapiens, UniProt P0C264)
Protocol: as §1

[22] = target: PLK4 (Homo sapiens, UniProt O00444)
Protocol: as §1

[23] = target: RSK1(Kin.Dom.1-N-terminal) (Homo sapiens, UniProt Q15418)
Protocol: as §1

[24] = target: MLK3 (Homo sapiens, UniProt Q16584)
Protocol: as §1

[25] = target: SGK3 (Homo sapiens, UniProt Q96BR1)
Protocol: as §1

[26] = target: ACVR1 (Homo sapiens, UniProt Q04771)
Protocol: as §1

[27] = target: NIM1 (Homo sapiens, UniProt Q8IY84)
Protocol: as §1

[28] = target: DCAMKL2 (Homo sapiens, UniProt Q8N568)
Protocol: as §1

[29] = target: LIMK1 (Homo sapiens, UniProt P53667)
Protocol: as §1

[30] = target: MEK3 (Homo sapiens, UniProt P46734)
Protocol: as §1

[31] = target: PIK3CA(H1047Y) (Homo sapiens, UniProt P42336, H1047Y)
Protocol: as §1

[32] = target: SIK2 (Homo sapiens, UniProt Q9H0K1)
Protocol: as §1

[33] = target: LOK (Homo sapiens, UniProt O94804)
Protocol: as §1

[34] = target: ABL1(T315I)-phosphorylated (Homo sapiens, UniProt P00519, T315I)
Protocol: as §1

[35] = target: BRAF(V600E) (Homo sapiens, UniProt P15056, V600E)
Protocol: as §1

[36] = target: MEK5 (Homo sapiens, UniProt Q13163)
Protocol: as §1

[37] = target: NEK11 (Homo sapiens, UniProt Q8NG66)
Protocol: as §1

[38] = target: SGK (Homo sapiens, UniProt O00141)
Protocol: as §1

Sequence of FGFR2 (P21802 22-821): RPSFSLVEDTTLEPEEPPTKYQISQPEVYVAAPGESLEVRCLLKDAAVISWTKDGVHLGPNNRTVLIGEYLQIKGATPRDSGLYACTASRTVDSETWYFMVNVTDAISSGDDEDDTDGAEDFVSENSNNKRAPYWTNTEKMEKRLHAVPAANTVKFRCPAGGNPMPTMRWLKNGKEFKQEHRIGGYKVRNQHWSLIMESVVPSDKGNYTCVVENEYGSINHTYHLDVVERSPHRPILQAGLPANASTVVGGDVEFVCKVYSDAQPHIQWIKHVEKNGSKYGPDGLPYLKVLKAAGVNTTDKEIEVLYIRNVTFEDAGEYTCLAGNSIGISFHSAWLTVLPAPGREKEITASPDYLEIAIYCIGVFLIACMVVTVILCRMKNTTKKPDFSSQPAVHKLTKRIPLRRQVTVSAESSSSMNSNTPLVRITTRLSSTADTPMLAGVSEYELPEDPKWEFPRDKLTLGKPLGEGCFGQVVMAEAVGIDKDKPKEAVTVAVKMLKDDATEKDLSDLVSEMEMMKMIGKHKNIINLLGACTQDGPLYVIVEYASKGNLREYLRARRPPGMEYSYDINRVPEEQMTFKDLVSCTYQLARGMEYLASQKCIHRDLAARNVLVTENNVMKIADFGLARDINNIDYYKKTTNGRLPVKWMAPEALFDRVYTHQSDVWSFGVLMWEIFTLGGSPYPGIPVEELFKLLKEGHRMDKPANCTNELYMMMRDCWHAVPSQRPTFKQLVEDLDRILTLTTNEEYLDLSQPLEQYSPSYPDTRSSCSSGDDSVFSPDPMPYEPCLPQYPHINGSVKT
Sequence of DCAMKL1 (O15075 whole entry): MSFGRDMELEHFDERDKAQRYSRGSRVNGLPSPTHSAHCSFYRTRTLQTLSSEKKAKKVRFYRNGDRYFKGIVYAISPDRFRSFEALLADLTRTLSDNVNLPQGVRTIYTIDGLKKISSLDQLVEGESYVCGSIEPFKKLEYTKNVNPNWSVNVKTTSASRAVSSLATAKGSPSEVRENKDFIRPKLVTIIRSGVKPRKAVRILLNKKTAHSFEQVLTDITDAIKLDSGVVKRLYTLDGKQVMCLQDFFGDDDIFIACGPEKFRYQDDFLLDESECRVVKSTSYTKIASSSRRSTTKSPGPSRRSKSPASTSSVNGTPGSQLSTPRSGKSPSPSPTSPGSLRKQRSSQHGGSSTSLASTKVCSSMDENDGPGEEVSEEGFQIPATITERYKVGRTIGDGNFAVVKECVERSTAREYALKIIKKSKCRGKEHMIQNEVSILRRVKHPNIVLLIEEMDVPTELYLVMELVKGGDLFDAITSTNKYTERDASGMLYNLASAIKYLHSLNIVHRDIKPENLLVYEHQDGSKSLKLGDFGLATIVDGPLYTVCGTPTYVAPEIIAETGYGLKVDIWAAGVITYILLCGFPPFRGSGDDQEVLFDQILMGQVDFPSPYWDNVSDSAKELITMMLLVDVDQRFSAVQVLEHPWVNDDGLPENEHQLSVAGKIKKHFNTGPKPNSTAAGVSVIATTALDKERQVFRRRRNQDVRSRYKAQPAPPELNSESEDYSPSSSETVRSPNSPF
Sequence of MAP4K4 (O95819 whole entry): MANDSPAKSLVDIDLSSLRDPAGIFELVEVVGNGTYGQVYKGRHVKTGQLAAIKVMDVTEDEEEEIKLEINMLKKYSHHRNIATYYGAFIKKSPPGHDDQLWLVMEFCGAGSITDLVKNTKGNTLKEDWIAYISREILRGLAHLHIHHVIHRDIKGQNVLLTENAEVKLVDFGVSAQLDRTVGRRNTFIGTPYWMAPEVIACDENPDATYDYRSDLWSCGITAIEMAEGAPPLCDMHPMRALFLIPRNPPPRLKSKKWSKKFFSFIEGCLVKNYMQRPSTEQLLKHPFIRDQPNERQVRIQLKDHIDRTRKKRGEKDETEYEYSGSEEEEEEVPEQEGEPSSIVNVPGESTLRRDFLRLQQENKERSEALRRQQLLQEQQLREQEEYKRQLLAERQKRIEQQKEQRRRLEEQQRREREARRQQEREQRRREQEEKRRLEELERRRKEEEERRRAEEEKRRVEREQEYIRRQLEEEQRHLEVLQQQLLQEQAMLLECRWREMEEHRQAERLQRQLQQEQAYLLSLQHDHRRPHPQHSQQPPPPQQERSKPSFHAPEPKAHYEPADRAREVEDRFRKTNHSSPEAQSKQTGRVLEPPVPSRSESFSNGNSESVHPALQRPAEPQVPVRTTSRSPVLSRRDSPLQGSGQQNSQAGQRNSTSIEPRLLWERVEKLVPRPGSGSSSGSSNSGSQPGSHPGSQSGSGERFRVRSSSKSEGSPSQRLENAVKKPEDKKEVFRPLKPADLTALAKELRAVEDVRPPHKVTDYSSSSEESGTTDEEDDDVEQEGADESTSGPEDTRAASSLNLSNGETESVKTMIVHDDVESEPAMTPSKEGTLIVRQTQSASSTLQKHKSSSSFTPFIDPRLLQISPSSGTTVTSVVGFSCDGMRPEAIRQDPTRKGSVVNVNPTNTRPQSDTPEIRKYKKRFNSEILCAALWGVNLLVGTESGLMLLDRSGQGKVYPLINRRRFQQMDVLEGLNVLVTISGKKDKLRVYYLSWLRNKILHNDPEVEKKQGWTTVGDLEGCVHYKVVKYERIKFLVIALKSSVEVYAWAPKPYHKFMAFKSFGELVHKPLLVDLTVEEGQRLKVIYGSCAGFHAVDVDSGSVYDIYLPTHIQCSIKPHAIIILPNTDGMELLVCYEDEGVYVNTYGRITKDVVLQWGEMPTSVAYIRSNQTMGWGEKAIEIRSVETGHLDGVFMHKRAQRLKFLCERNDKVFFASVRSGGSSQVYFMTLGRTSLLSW
Sequence of MELK (Q14680 whole entry): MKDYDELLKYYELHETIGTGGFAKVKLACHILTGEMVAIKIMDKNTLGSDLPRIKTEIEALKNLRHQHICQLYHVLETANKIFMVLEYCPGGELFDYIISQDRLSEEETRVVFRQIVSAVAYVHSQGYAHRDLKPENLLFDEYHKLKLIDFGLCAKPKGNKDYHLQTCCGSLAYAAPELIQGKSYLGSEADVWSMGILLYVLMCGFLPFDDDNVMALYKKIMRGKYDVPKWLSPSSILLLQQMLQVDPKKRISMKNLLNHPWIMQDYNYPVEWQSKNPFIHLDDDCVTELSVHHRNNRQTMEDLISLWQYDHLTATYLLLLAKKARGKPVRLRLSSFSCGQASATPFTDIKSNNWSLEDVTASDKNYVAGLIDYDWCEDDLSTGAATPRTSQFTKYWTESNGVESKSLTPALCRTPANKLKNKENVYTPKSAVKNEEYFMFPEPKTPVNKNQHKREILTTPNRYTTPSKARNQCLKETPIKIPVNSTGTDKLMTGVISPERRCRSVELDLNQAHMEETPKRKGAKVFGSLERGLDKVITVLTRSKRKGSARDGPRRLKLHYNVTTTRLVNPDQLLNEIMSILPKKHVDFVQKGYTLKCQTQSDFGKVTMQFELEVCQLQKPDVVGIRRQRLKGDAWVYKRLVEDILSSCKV
Sequence of DMPK2 (Q6DT37 whole entry): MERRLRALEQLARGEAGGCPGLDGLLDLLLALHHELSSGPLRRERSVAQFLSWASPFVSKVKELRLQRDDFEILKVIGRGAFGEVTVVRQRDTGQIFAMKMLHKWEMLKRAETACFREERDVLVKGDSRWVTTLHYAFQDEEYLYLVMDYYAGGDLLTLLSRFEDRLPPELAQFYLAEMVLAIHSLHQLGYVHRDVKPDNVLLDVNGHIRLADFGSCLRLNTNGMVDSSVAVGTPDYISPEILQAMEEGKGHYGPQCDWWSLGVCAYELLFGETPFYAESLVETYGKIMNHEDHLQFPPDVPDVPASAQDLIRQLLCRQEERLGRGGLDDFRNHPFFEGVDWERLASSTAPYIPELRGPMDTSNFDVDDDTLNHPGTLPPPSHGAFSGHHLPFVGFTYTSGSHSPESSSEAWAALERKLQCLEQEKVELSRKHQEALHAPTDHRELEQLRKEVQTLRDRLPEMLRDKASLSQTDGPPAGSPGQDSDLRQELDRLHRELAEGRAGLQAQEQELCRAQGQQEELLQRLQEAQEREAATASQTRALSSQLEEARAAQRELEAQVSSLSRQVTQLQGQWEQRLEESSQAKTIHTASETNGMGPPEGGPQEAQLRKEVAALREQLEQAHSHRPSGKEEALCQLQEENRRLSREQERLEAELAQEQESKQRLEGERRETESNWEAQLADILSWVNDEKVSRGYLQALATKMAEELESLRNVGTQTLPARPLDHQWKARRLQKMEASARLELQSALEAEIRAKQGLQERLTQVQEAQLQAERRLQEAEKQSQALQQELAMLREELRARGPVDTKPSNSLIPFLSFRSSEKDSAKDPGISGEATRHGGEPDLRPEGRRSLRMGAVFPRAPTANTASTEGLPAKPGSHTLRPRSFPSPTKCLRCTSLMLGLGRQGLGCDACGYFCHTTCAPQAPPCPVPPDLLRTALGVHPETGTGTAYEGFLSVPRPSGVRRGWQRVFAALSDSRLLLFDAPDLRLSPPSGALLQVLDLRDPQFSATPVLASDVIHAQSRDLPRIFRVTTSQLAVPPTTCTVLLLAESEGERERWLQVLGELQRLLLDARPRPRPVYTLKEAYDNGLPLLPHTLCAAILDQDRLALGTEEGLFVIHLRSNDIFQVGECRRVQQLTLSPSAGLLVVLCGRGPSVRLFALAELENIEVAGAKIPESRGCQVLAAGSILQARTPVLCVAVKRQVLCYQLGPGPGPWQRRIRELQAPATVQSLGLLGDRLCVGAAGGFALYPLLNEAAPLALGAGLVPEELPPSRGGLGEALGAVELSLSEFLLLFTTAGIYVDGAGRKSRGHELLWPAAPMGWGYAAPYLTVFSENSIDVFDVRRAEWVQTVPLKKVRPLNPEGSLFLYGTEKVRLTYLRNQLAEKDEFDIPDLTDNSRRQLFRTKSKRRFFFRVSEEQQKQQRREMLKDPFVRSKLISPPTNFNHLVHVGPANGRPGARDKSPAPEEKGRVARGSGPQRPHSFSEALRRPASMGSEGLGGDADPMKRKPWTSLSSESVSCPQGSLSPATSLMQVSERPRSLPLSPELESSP

Question: For `O=C1CCC(N2C(=O)c3cccc(NCCCCCCCCNC(=O)N4CC[C@H](NC5=Nc6cc(F)ccc6N(CC(F)F)c6ccc(Cl)cc65)C4)c3C2=O)C(=O)N1` (stereo partly drawn) [BJG-05-039, (3S)-3-((2-Chloro-5-(2,2-difluoroethyl)-8-fluoro-5H-dibenzo[b,e][1,4]diazepin-11-yl)amino)-N-(8-((2-(2,6-dioxopiperidin-3-yl)-1,3-dioxoisoindolin-4-yl)amino)octyl)pyrrolidine-1-carboxamide], which remaining binding at 10 µM [1] is on record?
Answer: 38%

Question: And the remaining binding at 10 µM [2]?
Answer: 45%

Question: And the remaining binding at 10 µM [3]?
Answer: 46%

Question: What about the remaining binding at 10 µM [4] of the same molecule?
Answer: 48%

Question: What about the remaining binding at 10 µM [5] of the same molecule?
Answer: 57%

Question: What about the remaining binding at 10 µM [6] of the same molecule?
Answer: 58%

Question: What about the remaining binding at 10 µM [7] of the same molecule?
Answer: 59%

Question: And the remaining binding at 10 µM [8]?
Answer: 59%

Question: What about the remaining binding at 10 µM [9] of the same molecule?
Answer: 61%

Question: And the remaining binding at 10 µM [10]?
Answer: 65%

Question: What about the remaining binding at 10 µM [11] of the same molecule?
Answer: 72%

Question: And the remaining binding at 10 µM [12]?
Answer: 76%

Question: What about the remaining binding at 10 µM [13] of the same molecule?
Answer: 77%

Question: What about the remaining binding at 10 µM [14] of the same molecule?
Answer: 77%

Question: And the remaining binding at 10 µM [15]?
Answer: 79%

Question: And the remaining binding at 10 µM [16]?
Answer: 80%

Question: What about the remaining binding at 10 µM [17] of the same molecule?
Answer: 80%

Question: And the remaining binding at 10 µM [18]?
Answer: 81%

Question: What about the remaining binding at 10 µM [19] of the same molecule?
Answer: 81%

Question: What about the remaining binding at 10 µM [20] of the same molecule?
Answer: 82%

Question: And the remaining binding at 10 µM [21]?
Answer: 83%

Question: And the remaining binding at 10 µM [22]?
Answer: 85%

Question: And the remaining binding at 10 µM [23]?
Answer: 87%

Question: What about the remaining binding at 10 µM [24] of the same molecule?
Answer: 88%

Question: And the remaining binding at 10 µM [25]?
Answer: 88%

Question: And the remaining binding at 10 µM [26]?
Answer: 89%

Question: What about the remaining binding at 10 µM [27] of the same molecule?
Answer: 89%

Question: What about the remaining binding at 10 µM [28] of the same molecule?
Answer: 92%

Question: What about the remaining binding at 10 µM [29] of the same molecule?
Answer: 94%

Question: And the remaining binding at 10 µM [30]?
Answer: 94%

Question: And the remaining binding at 10 µM [31]?
Answer: 94%

Question: What about the remaining binding at 10 µM [32] of the same molecule?
Answer: 97%

Question: And the remaining binding at 10 µM [33]?
Answer: 98%

Question: And the remaining binding at 10 µM [34]?
Answer: 100%

Question: What about the remaining binding at 10 µM [35] of the same molecule?
Answer: 100%

Question: What about the remaining binding at 10 µM [36] of the same molecule?
Answer: 100%

Question: And the remaining binding at 10 µM [37]?
Answer: 100%

Question: What about the remaining binding at 10 µM [38] of the same molecule?
Answer: 100%
